Reference: PMC6272317, “Design, Synthesis and Antitubercular Activity of Certain Nicotinic Acid Hydrazides” (Molecules, 2015)
In brackets after ≈: the same amount, converted by molar mass. Read-outs that look alike come from different tables or passages of the source.

What was measured:
[1] = test system: M. tuberculosis (RCMB 010126); test: microplate Alamar blue assay (MABA), in vitro antimycobacterial activity; type: cell-based, Mycobacterium tuberculosis; conditions: for Mean of Inhibition %: test concentration not stated; for MIC: visual MIC
[2] = test system: A-549 human lung cancer cell line; parameters: method as in PMID 25499988; conditions: previous study ref 40, cited from earlier work; for IC50: A549, 72 h; for cytotoxicity (in words): A549
[3] = test system: PC-3 prostate cancer cell line; test: SRB cytotoxicity assay, PC-3; conditions: for IC50: 72 h; for cytotoxicity (in words): PC-3
[4] = test system: HT-29 colon cancer cell line; test: SRB cytotoxicity assay, HT-29; conditions: for IC50: Homo sapiens, HT-29, 72 h; for cytotoxicity (in words): HT-29
[5] = test system: MCF-7 breast cancer cell line; parameters: method as in PMID 25499988; conditions: previous study ref 40, cited from earlier work; for IC50: MCF-7, 72 h; for cytotoxicity (in words): MCF-7
[6] = test system: HepG-2 liver cancer cell line; parameters: method as in PMID 25499988; conditions: previous study ref 40, cited from earlier work; for IC50: HepG2, 72 h; for cytotoxicity (in words): HepG2
[7] = M. tuberculosis RCMB 010126, MABA
[8] = Mycobacterium tuberculosis, RCMB010126, M. tuberculosis RCMB 010126, MABA, read-out: MIC

| Structure (SMILES) | Mean of Inhibition % [1, 7] | MIC [1, 8] [µg/mL] | melting point [°C] | further results |
| --- | --- | --- | --- | --- |
| Cc1nc(-c2ccccc2)ccc1C(=O)NN [Compound 4a] | 42.52 ± 0.63% | 25 (≈ 110 µM) | – | – |
| Cc1ccc(-c2ccc(C(=O)NN)c(C)n2)cc1 [Compound 4b] | 36.33 ± 0.58% | 25 (≈ 104 µM) | – | – |
| Cc1nc(-c2ccc(F)cc2)ccc1C(=O)NN [Compound 4c, 6-(4-fluorophenyl)-2-methylnicotinohydrazide] | NA (No Activity (>100 µg/mL)) | > 100 | – | antimycobacterial activity (in words) ([1]; M. tuberculosis, MABA): complete loss of activity |
| Cc1nc(-c2ccc(Cl)cc2)ccc1C(=O)NN [Compound 4d] | 12.45 ± 0.58% | 50 (≈ 191 µM) | – | MIC [1, 7]: 100 µg/mL (≈ 382 µM) |
| Cc1nc(-c2ccc(Br)cc2)ccc1C(=O)NN [Compound 4e, 6-(4-Bromophenyl)-2-methylnicotinohydrazide] | 20.63 ± 0.63% | 100 (≈ 327 µM) | 213 to 215 | MIC [1, 7]: 50 µg/mL (≈ 163 µM) |
| COc1ccc(-c2ccc(C(=O)NN)c(C)n2)cc1 [Compound 4f, 6-(4-Methoxyphenyl)-2-methylnicotinohydrazide] | 42.63 ± 0.16% | 25 (≈ 97.2 µM) | – | – |
| COc1ccc(-c2ccc(C(=O)NN)c(C)n2)cc1OC [Compound 4g, 6-(3,4-Dimethoxyphenyl)-2-methylnicotinohydrazide] | 22.63 ± 0.16% | 50 (≈ 174 µM) | 204 to 205 | – |
| COc1cc(-c2ccc(C(=O)NN)c(C)n2)cc(OC)c1OC [Compound 4h, 2-Methyl-6-(3,4,5-trimethoxyphenyl)nicotinohydrazide] | 18.32 ± 0.72% | 50 (≈ 158 µM) | – | – |
| Cc1nc(-c2cccs2)ccc1C(=O)NN [Compound 4i] | 22.63 ± 0.20% | 50 (≈ 214 µM) | – | – |
| Cc1nc(-c2ccc(Br)cc2)ccc1C(=O)NN=Cc1ccccc1 [Compound 7a, N′-Benzylidene-6-(4-bromophenyl)-2-methylnicotinohydrazide] | NA (No Activity (>100 µg/mL)) | > 100 | 270 to 272 | – |
| Cc1nc(-c2ccc(Br)cc2)ccc1C(=O)NN=Cc1ccc(F)cc1 [Compound 7b, 6-(4-Bromophenyl)-N'-(4-fluorobenzylidene)-2-methylnicotinohydrazide] | NA (No Activity (>100 µg/mL)) | > 100 | 252 to 254 | – |
| Cc1nc(-c2ccc(Br)cc2)ccc1C(=O)NN=Cc1ccc(Cl)cc1 [Compound 7c, 6-(4-Bromophenyl)-N'-(4-chlorobenzylidene)-2-methylnicotinohydrazide] | NA (No Activity (>100 µg/mL)) | > 100 | 265 to 267 | – |
| Cc1nc(-c2ccc(Br)cc2)ccc1C(=O)NN=Cc1ccc(Cl)cc1Cl [Compound 7d, 6-(4-Bromophenyl)-N'-(2,4-dichlorobenzylidene)-2-methylnicotinohydrazide] | 13.57 ± 0.72% | 100 (≈ 216 µM) | 269 to 271 | – |
| COc1ccc(C=NNC(=O)c2ccc(-c3ccc(Br)cc3)nc2C)cc1 [Compound 7e, 6-(4-Bromophenyl)-N'-(4-methoxybenzylidene)-2-methylnicotinohydrazide] | NA (No Activity (>100 µg/mL)) | > 100 | 251 to 253 | – |
| Cc1nc(-c2ccc(Br)cc2)ccc1C(=O)NN=Cc1ccc2ccccc2c1 [Compound 7f, 6-(4-Bromophenyl)-2-methyl-N'-(naphthalen-2-ylmethylene)nicotinohydrazide] | 14.32 ± 0.58% | 100 (≈ 225 µM) | 273 to 275 | – |
| Cc1nc(-c2ccc(F)cc2)ccc1C(=O)N/N=C1\C(=O)Nc2ccccc21 [Compound 8a] | 31.44 ± 0.58% | 25 (≈ 66.8 µM) | – | IC50 [2]: > 200 µM; IC50 [3]: > 200 µM; IC50 [4]: > 200 µM; IC50 [5]: > 200 µM; IC50 [6]: > 200 µM |
| Cc1nc(-c2ccc(F)cc2)ccc1C(=O)N/N=C1\C(=O)Nc2ccc(Cl)cc21 [Compound 8b] | 52.63 ± 0.58% | 12.5 (≈ 30.6 µM) | – | IC50 [2]: > 200 µM; cytotoxicity (in words) [2]: devoid of apparent cytotoxicity; IC50 [3]: > 200 µM; cytotoxicity (in words) [3]: devoid of apparent cytotoxicity; MIC [1, 7]: 12.5 µg/mL (≈ 30.6 µM); cytotoxicity (in words) [4]: devoid of apparent cytotoxicity; IC50 [4]: > 200 µM; IC50 [5]: > 200 µM; cytotoxicity (in words) [5]: devoid of apparent cytotoxicity; IC50 [6]: > 200 µM; cytotoxicity (in words) [6]: devoid of apparent cytotoxicity |
| Cc1nc(-c2ccc(F)cc2)ccc1C(=O)N/N=C1\C(=O)Nc2ccc(Br)cc21 [Compound 8c] | 77.42 ± 0.93% | 6.25 (≈ 13.8 µM) | – | IC50 [2]: > 200 µM; cytotoxicity (in words) [2]: devoid of apparent cytotoxicity; IC50 [3]: > 200 µM; cytotoxicity (in words) [3]: devoid of apparent cytotoxicity; cytotoxicity (in words) [4]: devoid of apparent cytotoxicity; IC50 [4]: > 200 µM; IC50 [5]: > 200 µM; cytotoxicity (in words) [5]: devoid of apparent cytotoxicity; IC50 [6]: > 200 µM; cytotoxicity (in words) [6]: devoid of apparent cytotoxicity |
| COc1cccc2c1C(=O)c1c(O)c3c(c(O)c1C2=O)C[C@@](O)(C(=O)CO)C[C@@H]3O[C@H]1C[C@H](N)[C@H](O)[C@H](C)O1 [Doxorubicin, reference compound] | – | – | – | IC50 [2]: 7.6 ± 1.37 µM; IC50 [3]: 6.5 ± 1.07 µM; IC50 [4]: 7.3 ± 1.11 µM; IC50 [5]: 6.1 ± 1.95 µM; IC50 [6]: 6.9 ± 2.05 µM |
| NNC(=O)c1ccncc1 [Isoniazide, Isoniazid, reference compound] | – | 0.75 (≈ 5.47 µM) | – | – |
| NC(=O)c1cnccn1 [Pyrazinamid, pyrazinamide, reference compound] | 93.25 ± 0.63% | 3.21 (≈ 26.1 µM) | – | – |
